Results: ChEMBL document CHEMBL1201862, “PubChem BioAssay data set” (2004)
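Assay format: 96-well plates, 48-hour exposure. Abbreviation: GI50, concentration required for 50% inhibition of growth.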 Calls of active or inactive are those of the source. Rule as the data show it: active = GI50 up to about 1.1 µM and inactive = higher.

How the values were obtained:
Assay in all cases: NCI anticancer screen, dose series, 48 h
BT-549 = system: BT-549
NCI/ADR-RES = system: NCI/ADR-RES
HCT-15 = system: HCT-15
MDA-MB-231 = system: MDA-MB-231
HL-60 = system: HL-60
TK-10 = system: TK-10
UO-31 = system: UO-31
HOP-92 = system: HOP-92
NCI-H23 = system: NCI-H23
EKVX = system: EKVX
RPMI-8226 = system: RPMI-8226
PC-3 = system: PC-3
SK-MEL-28 = system: SK-MEL-28
OVCAR-5 = system: OVCAR-5
786-0 = system: 786-0
OVCAR-4 = system: OVCAR-4
NCI-H522 = system: NCI-H522
NCI-H226 = system: NCI-H226
A498 = system: A498
K562 = system: K562
NCI-H460 = system: NCI-H460
SW-620 = system: SW-620
COLO 205 = system: COLO 205
M14 = system: M14
MDA-N = system: MDA-N
OVCAR-8 = system: OVCAR-8
UACC-62 = system: UACC-62
SN12C = system: SN12C
A549 = system: A549
KM12 = system: KM12
SNB-75 = system: SNB-75
HCC 2998 = system: HCC 2998
SR = system: SR
CAKI-1 = system: CAKI-1
DU-145 = system: DU-145
SK-MEL-2 = system: SK-MEL-2
Hs-578T = system: Hs-578T
CCRF-CEM = system: CCRF-CEM
T47D = system: T47D
HCT-116 = system: HCT-116
U-251 = system: U-251
IGROV-1 = system: IGROV-1
SK-MEL-5 = system: SK-MEL-5
HT-29 = system: HT-29
MDA-MB-435 = system: MDA-MB-435
MOLT-4 = system: MOLT-4
ACHN = system: ACHN
SK-OV-3 = system: SK-OV-3
OVCAR-3 = system: OVCAR-3
LOX IMVI = system: LOX IMVI
SF-268 = system: SF-268
HOP-62 = system: HOP-62
UACC-257 = system: UACC-257
SNB-19 = system: SNB-19
RXF 393 = system: RXF 393
MCF7 = system: MCF7
SF-295 = system: SF-295
SF-539 = system: SF-539

In the case of O=C1OC(c2ccccc2)=N/C1=C\c1ccc(F)cc1, the GI50 (BT-549) is reported as 75.3 µM (inactive), the GI50 (NCI/ADR-RES) is reported as 46.6 µM (inactive) and the GI50 (HCT-15) is reported as over 100 µM. The GI50 (MDA-MB-231) was > 100 µM (inactive), the GI50 (HL-60) was > 100 µM (inactive) and the GI50 (TK-10) was > 100 µM (inactive). The GI50 (UO-31) was > 100 µM (inactive), the GI50 (HOP-92) was > 100 µM (inactive) and the GI50 (NCI-H23) was > 100 µM (inactive). For the same molecule, the GI50 (EKVX) was > 100 µM (inactive), the GI50 (RPMI-8226) was 38.9 µM (inactive) and the GI50 (PC-3) was > 100 µM (inactive). For the same molecule, the GI50 (SK-MEL-28) was > 100 µM (inactive), the GI50 (OVCAR-5) was > 100 µM (inactive) and the GI50 (786-0) was > 100 µM (inactive). For the same molecule, the GI50 (OVCAR-4) was 97.3 µM (inactive), the GI50 (NCI-H522) was 40.5 µM (inactive) and the GI50 (NCI-H226) was 35.6 µM (inactive). The GI50 (A498) was > 100 µM (inactive), the GI50 (K562) was > 100 µM (inactive) and the GI50 (NCI-H460) was > 100 µM (inactive). The GI50 (SW-620) was > 100 µM (inactive), the GI50 (COLO 205) was > 100 µM (inactive) and the GI50 (M14) was > 100 µM (inactive). The GI50 (MDA-N) was > 100 µM (inactive), the GI50 (OVCAR-8) was 47 µM (inactive) and the GI50 (UACC-62) was > 100 µM (inactive). For the same molecule, the GI50 (SN12C) was > 100 µM (inactive), the GI50 (A549) was > 100 µM (inactive) and the GI50 (KM12) was > 100 µM (inactive). For the same molecule, the GI50 (SNB-75) was > 100 µM (inactive), the GI50 (HCC 2998) was > 100 µM (inactive) and the GI50 (SR) was > 100 µM (inactive). For the same molecule, the GI50 (CAKI-1) was > 100 µM (inactive), the GI50 (DU-145) was > 100 µM (inactive) and the GI50 (SK-MEL-2) was > 100 µM (inactive). The GI50 (Hs-578T) was > 100 µM (inactive), the GI50 (CCRF-CEM) was 35.8 µM (inactive) and the GI50 (T47D) was > 100 µM (inactive). For the same molecule, the GI50 (HCT-116) was > 100 µM (inactive), the GI50 (U-251) was 89.7 µM (inactive) and the GI50 (IGROV-1) was 71.3 µM (inactive). For the same molecule, the GI50 (SK-MEL-5) was 80.5 µM (inactive), the GI50 (HT-29) was > 100 µM (inactive) and the GI50 (MDA-MB-435) was > 100 µM (inactive). The GI50 (MOLT-4) was 50.6 µM (inactive), the GI50 (ACHN) was > 100 µM (inactive) and the GI50 (SK-OV-3) was > 100 µM (inactive). For the same molecule, the GI50 (OVCAR-3) was 22.2 µM (inactive), the GI50 (LOX IMVI) was 38.9 µM (inactive) and the GI50 (SF-268) was 66.8 µM (inactive). The GI50 (HOP-62) was 42.4 µM (inactive), the GI50 (UACC-257) was > 100 µM (inactive) and the GI50 (SNB-19) was > 100 µM (inactive). The GI50 (RXF 393) was > 100 µM (inactive).

With CC(C)c1ccc2c(c1)C=C1OC(=O)[C@]3(C)CCC[C@@]2(C)C13 (stereo partly drawn) the GI50 (BT-549) was > 100 µM (inactive), the GI50 (NCI/ADR-RES) was > 100 µM (inactive) and the GI50 (HCT-15) was over 100 µM. The GI50 (MDA-MB-231) was > 100 µM (inactive), the GI50 (HL-60) was 44.2 µM (inactive) and the GI50 (TK-10) was > 100 µM (inactive). The GI50 (UO-31) was > 100 µM (inactive), the GI50 (NCI-H23) was > 100 µM (inactive) and the GI50 (MCF7) was > 100 µM (inactive). The GI50 (EKVX) was > 100 µM (inactive), the GI50 (RPMI-8226) was > 100 µM (inactive) and the GI50 (PC-3) was > 100 µM (inactive). The GI50 (SK-MEL-28) was > 100 µM (inactive), the GI50 (786-0) was > 100 µM (inactive) and the GI50 (OVCAR-4) was > 100 µM (inactive). For the same molecule, the GI50 (NCI-H522) was 73.5 µM (inactive), the GI50 (NCI-H226) was > 100 µM (inactive) and the GI50 (K562) was > 100 µM (inactive). The GI50 (NCI-H460) was > 100 µM (inactive), the GI50 (SW-620) was > 100 µM (inactive) and the GI50 (COLO 205) was > 100 µM (inactive). For the same molecule, the GI50 (M14) was > 100 µM (inactive), the GI50 (MDA-N) was > 100 µM (inactive) and the GI50 (OVCAR-8) was > 100 µM (inactive). The GI50 (UACC-62) was > 100 µM (inactive), the GI50 (SN12C) was > 100 µM (inactive) and the GI50 (A549) was > 100 µM (inactive). For the same molecule, the GI50 (KM12) was > 100 µM (inactive), the GI50 (SNB-75) was > 100 µM (inactive) and the GI50 (HCC 2998) was > 100 µM (inactive). For the same molecule, the GI50 (SR) was > 100 µM (inactive), the GI50 (CAKI-1) was > 100 µM (inactive) and the GI50 (DU-145) was > 100 µM (inactive). For the same molecule, the GI50 (SF-295) was > 100 µM (inactive), the GI50 (Hs-578T) was > 100 µM (inactive) and the GI50 (CCRF-CEM) was > 100 µM (inactive). For the same molecule, the GI50 (T47D) was > 100 µM (inactive), the GI50 (HCT-116) was > 100 µM (inactive) and the GI50 (U-251) was > 100 µM (inactive). The GI50 (IGROV-1) was > 100 µM (inactive), the GI50 (SK-MEL-5) was > 100 µM (inactive) and the GI50 (HT-29) was > 100 µM (inactive). For the same molecule, the GI50 (SF-539) was > 100 µM (inactive), the GI50 (MDA-MB-435) was > 100 µM (inactive) and the GI50 (MOLT-4) was > 100 µM (inactive). For the same molecule, the GI50 (ACHN) was > 100 µM (inactive), the GI50 (SK-OV-3) was > 100 µM (inactive) and the GI50 (OVCAR-3) was > 100 µM (inactive). For the same molecule, the GI50 (SF-268) was > 100 µM (inactive), the GI50 (HOP-62) was > 100 µM (inactive) and the GI50 (UACC-257) was > 100 µM (inactive). The GI50 (SNB-19) was > 100 µM (inactive) and the GI50 (RXF 393) was > 100 µM (inactive).
